Values of other authors as cited in paper PMC11322901 (Chemical Science, 2024).

How the values were obtained:
CaM(Ca2+) = CaM(Ca2+) (Mus musculus, UniProt P0DP26)
GST = conditions: read-out: Ki of monovalent EA inhibitor

Ki (GST) [nM] | Compound | Affinity for CaM(Ca2+) (CaM(Ca2+))
– | mastoparan | low nanomolar
1000 to 5000 | C=C(CC)C(=O)c1ccc(OCC(=O)O)c(Cl)c1Cl [EA] | –
